Assay [1] addresses hROMK (hKir1.1) (Homo sapiens (Human), UniProt P48048). As to the kind of experiment: Thallium Flux Assay (ROMK channel functional thallium flux, FLIPR-Tetra). Type of assay: cell-based. On the procedure: Another ROMK functional assay makes use of the ability of thallium to permeate through open ROMK channels and increase the fluorescence of a dye previously loaded into the cells. Under control conditions, cells loaded with dye and exposed to thallium-containing medium display a time-dependent increase in fluorescence, the rate of which depends on number of functional channels. When cells are incubated in the presence of a channel inhibitor, the increase in fluorescence is attenuated in a concentration-dependent manner, and IC50 values of inhibition by compounds can be accurately determined. This assay has been established with cell lines expressing either human, or rat ROMK channels, and operates in 384-well format.
HEK293 cells stably expressing hROMK (hKir1.1) were grown at 37° C. in a 10% CO2 humidified incubator in complete growth media: Dulbecco's Modified Eagle Medium supplemented with non-essential amino acids, Penicillin/Streptomycin/Glutamine, G418 and FBS. At >80% confluency, the media was aspirated from the flask and the sample was rinsed with 10 ml Calcium/Magnesium-free PBS. […] To dislodge the cell, the side of the flask was gently banged with a hand. The cells were triturated completely and then transferred to 25 ml complete media. The sample was then centrifuged at 1,500 rpm for 6 minutes, followed by resuspension in complete growth media and then cell concentration was determined. […] Under ideal growth conditions and appropriate tissue culture practices, this cell line is stable for 40-45 passages.
FluxOR Kit Components (Invitrogen F10017)
• FluxOR™ Reagent (Component A) • FluxOR™ Assay Buffer (Component B)—10× Concentrate • PowerLoad™ Concentrate (Component C)—100× Concentrate • Probenecid (Component D)—Lyophilized sample is kept at −20° C. Water soluble, 100× after solubilization in 1 ml water. […] Store at 4° C. • Thallium sulfate (Tl2SO4) Concentrate (Component G)—50 mM in water. Store at 4° C. • DMSO (dimethyl sulfoxide, Component H)—1 ml (100%) Reagent Preparation— FluxOR Working Solutions • 1000× FluxOR™ Reagent: Reconstitute a vial of component A in 100 μl DMSO; Mix well; Store 10 μl aliquots at −20° C. • 1× FluxOR™ Assay Buffer: Dilute Component B 10-fold with water; Adjust pH to 7.4 with Hepes/NaOH; Filter and store at 4° C. • Probenecid/Assay Buffer: 100 ml of 1× FluxOR™ Assay Buffer; 1 ml of reconstituted component D; Store at 4° C. • Loading Buffer (per microplate): 10 μl 1000× FluxOR™ Reagent; 100 μl component C; 10 ml Probenecid/Assay Buffer • Compound Buffer (per microplate): 20 ml Probenecid/Assay Buffer; 0.3 mM ouabain (10 mM ouabain in water can be stored in amber bottle/aluminum foil at room temperature);
Test compound • 1× FluxOR™ Chloride-Free Buffer: Prepare 1× working solution in water. Can be stored at room temperature • Stimulant Buffer (prepared at 5× final concentration in 1× FluxOR™ Chloride-Free Buffer): 7.5 mM Thallium sulfate and 0.75 mM Potassium sulfate (to give a final assay concentration of 3 mM Thallium/0.3 mM Potassium). Store at 4° C. when not in use. If kept sterile, this solution is good for months. Assay Protocol—
The ROMK channel functional thallium flux assay is performed in 384 wells, using the FLIPR-Tetra instrument. HEK-hKir1.1 cells are seeded in Poly-D-Lysine microplates and kept in a 37° C.-10% CO2 incubator overnight. On the day of the experiment, the growth media is replaced with the FluxOR™ reagent loading buffer and incubated, protected from light, at ambient temperature (23-25° C.) for 90 min. The loading buffer is replaced with assay buffer±test compound followed by 30 min incubation at ambient temperature, where the Thallium/Potassium stimulant is added to the microplate.
• 1. Seed HEK-hKir1.1 cells (50 μl at 20,000 cells/well) in 384-well PDL coated Microplates • 2. Allow cells to adhere overnight in humidified 37° C./10% CO2 incubator • 3. Completely remove cell growth media from microplate and replace with 25 μl loading buffer • 4.

Assay [2] addresses Kir1.1 (ROMK1) (Homo sapiens (Human), UniProt P48048). Description: Electrophysiology Assay (whole cell voltage clamp, IonWorks Quattro). Type of assay: cell-based. An excerpt: Several assays may be used to measure functional inhibition of the ROMK channel by compounds of the instant invention. One assay that can be used is an electrophysiology assay that measures the electrical current that is generated as potassium permeates through the channel.
Block of Kir1.1 (ROMK1) currents was examined by whole cell voltage clamp (Hamill et. al. Pfluegers Archives 391:85-100 (1981)) using the IonWorks® Quattro automated electrophysiology platform (Molecular Devices, Sunnyvale, Calif.). Chinese hamster ovary cells stably expressing Kir1.1 channels were maintained in T-75 flasks in cell culture media in a humidified 10% CO2 incubator at 37° C. Prior to an experiment, Kir1.1 expression was induced by overnight incubation with 1 mM sodium butyrate. On the day of the experiment, cells were dissociated with 2.5 ml of Versene™ (Invitrogen 15040-066) for approximately 6 minutes at 37° C. and suspended in 10 ml of bath solution containing (in mM): 150 NaCl, 10 KCl, 2.7 CaCl2, 0.5 MgCl2, 5 HEPES, pH 7.4. After centrifugation, the cell pellet was resuspended in approximately 4.0 ml of bath solution and placed in the IonWorks® instrument. The intracellular solution consisted of (in mM): 80 K gluconate, 40 KCl, 20 KF, 3.2 MgCl2, 3 EGTA, 5 Hepes, pH 7.4. Electrical access to the cytoplasm was achieved by perforation in 0.13 mg/ml amphotericin B for 4 minutes. Amphotericin B (Sigma A-4888) was prepared as a 40 mg/ml solution in DMSO.
Voltage protocols and current recordings were performed using the IonWorks® HT software/hardware system. Currents were sampled at 1 kHz. No correction for liquid junction potentials was used. The test pulse, consisting of a 100 ms step to 0 mV from a holding potential of −70 mV, followed by a 100 ms voltage ramp from −70 mV to +70 mV, was applied before and after a 6 minutes compound incubation period. Test compounds were prepared by diluting DMSO stock solutions into the bath solution at 3× the final concentration and placed in the instrument in 96-well polypropylene plates. Current amplitudes were measured using the IonWorks® software. To assess compound potency, the fractional block during the voltage step to 0 mV was calculated in Microsoft® Excel (Microsoft, Redmond, Calif.), and dose-response curves were fitted with Igor Pro 4.0 (WaveMetrics, Lake Oswego, Oreg.).
In general terms: In patch-clamp work, channel activity is measured electrically.

[3] abbreviates: HEK293 cells stably expressing hROMK (hKir1.1), read-out: Thallium Flux Assay IC50.
The mark [4] stands for this setting: Chinese hamster ovary cells stably expressing Kir1.1, block during voltage step to 0 mV, read-out: EP Assay IC50.

pIC50: −log10 of the molar value. Where two headings read alike, the source gives them in different places.

Chain of hROMK (hKir1.1) (P48048 whole entry): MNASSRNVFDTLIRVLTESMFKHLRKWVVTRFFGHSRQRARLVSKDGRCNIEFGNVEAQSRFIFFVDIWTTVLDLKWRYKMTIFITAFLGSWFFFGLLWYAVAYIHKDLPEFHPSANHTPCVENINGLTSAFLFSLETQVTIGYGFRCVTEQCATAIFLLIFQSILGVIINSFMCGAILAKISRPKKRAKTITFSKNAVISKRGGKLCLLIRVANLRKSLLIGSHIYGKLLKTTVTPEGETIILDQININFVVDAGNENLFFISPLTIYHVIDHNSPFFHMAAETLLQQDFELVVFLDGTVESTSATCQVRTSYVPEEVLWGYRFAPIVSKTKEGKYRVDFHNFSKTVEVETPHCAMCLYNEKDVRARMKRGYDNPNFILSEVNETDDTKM
Chain of Kir1.1 (ROMK1) (P48048 whole entry, species assumed): as the sequence (P48048 whole entry) above

As for `Cc1c([C@H](O)CN2CCN(CCc3ccc4c(c3)CCOC4=O)CC2)ccc2c1COC2=O` [Example 31, (S)-6-(2-(4-(2-Hydroxy-2-(4-methyl-1-oxo-1,3-dihydroisobenzofuran-5-yl)ethyl)piperazin-1-yl)ethyl)isochroman-1-one], the negative logarithm of the IC50 (pIC50) is 6.50 in assay [1] (setting [3]) and 6.25 in assay [2] (setting [4]).
`Cc1c([C@@H](O)CN2CCN(CC(O)c3ccc(-n4cnnn4)nc3)CC2)ccc2c1COC2=O` (single isomer, unassigned) [Example 34A]: the pIC50 in assay [1] (read-out: Thallium Flux Assay IC50) is 6.53; in assay [2] (read-out: EP Assay IC50), 7.46.
`Cc1c([C@@H](O)CN2C3CCC2C2CCC3N2C(=O)c2ccc(-n3cnnn3)nc2)ccc2c1COC2=O` [Example 13]: the pIC50 in assay [1] (Thallium Flux Assay IC50) is 6.01; in assay [2] (read-out: EP Assay IC50) it was 6.89.
In the case of `Cc1c([C@@H](O)CN2C3COCC2CN(CC(O)c2ccc4c(c2)C[C@H](C)OC4=O)C3)ccc2c1COC2=O` (single isomer, unassigned) [Example 23B], the pIC50 in assay [1] (Thallium Flux Assay IC50) was 7.39; in assay [2] it was 7.19.
In the case of `Cc1c([C@@H](O)CN2CCN(C[C@H](O)c3ccc4c(c3C)COC4=O)C3(CCCC3)C2)ccc2c1COC2=O` [Example 1, 5,5′-{6,9-Diazaspiro[4.5]decane-6,9-diylbis[(1R)-1-hydroxyethane-2,1-diyl]}bis(4-methyl-2-benzofuran-1(3H)-one)], the results for the pIC50 in assay [1] (setting [3]) and in assay [2] (setting [4]) were 6.51 and 6.87, respectively.
Regarding `Cc1c([C@@H](O)CN2C3CCC2C2CCC3N2CC(O)c2ccc(C#N)cn2)ccc2c1COC2=O` (single isomer, unassigned) [Example 5], the negative logarithm of the IC50 (pIC50) in assay [1] (setting [3]) was 6.42; in assay [2] (setting [4]), 6.71.
On to `Cc1c([C@@H](O)CN2C3COCC2CN(CC(O)c2ccc4c(c2)C[C@H](C)OC4=O)C3)ccc2c1COC2=O` (single isomer, unassigned) [Example 23A], for which the pIC50 is 6.34 in assay [1] (Thallium Flux Assay IC50) and 5.61 in assay [2] (setting [4]).
With `O=C1OCCc2cc(CCN3CCN(CC(O)c4ccc5c(c4C(F)(F)F)COC5=O)CC3)ccc21` (centres unmarked) [Example 33, 6-(2-(4-(2-Hydroxy-2-(1-oxo-4-(trifluoromethyl)-1,3-dihydroisobenzofuran-5-yl)ethyl)piperazin-1-yl)ethyl)isochroman-1-one], the negative logarithm of the IC50 (pIC50) in assay [1] (setting [3]) was 6.53; in assay [2] (setting [4]), 7.42.
The like results for `Cc1cc(-n2cnnn2)ncc1[C@@H](O)CN1CCN(C[C@H](O)c2ccc3c(c2C)COC3=O)CC1` (single isomer, unassigned) [Example 35B] were, in that order, 6.56 and 7.49.
Regarding `COc1cc(C(O)CN2C3COCC2CN(C[C@H](O)c2ccc4c(c2C)COC4=O)C3)ncc1C#N` (stereo in doubt) [Example 25, (R)-6-(1-Hydroxy-2-(7-(2-hydroxy-2-(4-methyl-1-oxo-1,3-dihydroisobenzofuran-5-yl)ethyl)-3-oxa-7,9 diazabicyclo[3.3.1]nonan-9-yl)ethyl)-4-methoxynicotinonitrile], the negative logarithm of the IC50 (pIC50) is 7.69 in assay [1] (setting [3]) and 6.96 in assay [2] (read-out: EP Assay IC50).
With `Cc1c([C@@H](O)CN2CCN(CCc3ccc4c(c3)CCOC4=O)CC2)ccc2c1COC2=O` [Example 30, (R)-6-(2-(4-(2-Hydroxy-2-(4-methyl-1-oxo-1,3-dihydroisobenzofuran-5-yl)ethyl)piperazin-1-yl)ethyl)isochroman-1-one], the pIC50 is 7.25 in assay [1] (setting [3]) and 7.68 in assay [2] (setting [4]).
Turning to `COc1cc(C(O)CN2C3COCC2CN(C[C@H](O)c2ccc4c(c2C)COC4=O)C3)ncc1C#N` (stereo in doubt) [Example 26, (R)-6-(1-Hydroxy-2-(7-(2-hydroxy-2-(4-methyl-1-oxo-1,3-dihydroisobenzofuran-5-yl)ethyl)-3-oxa-7,9 diazabicyclo[3.3.1]nonan-9-yl)ethyl)-4-methoxynicotinonitrile], the figures for the pIC50 in assay [1] (setting [3]) and in assay [2] (read-out: EP Assay IC50) were 7.31 and 7.15, respectively.
Turning to `Cc1c([C@@H](O)CN2[C@@H]3CC[C@H]2CN(c2ccc(C#N)cn2)C3)ccc2c1COC2=O` [Example 10, 6-((1R,5S)-8-((R)-2-Hydroxy-2-(4-methyl-1-oxo-1,3-dihydroisobenzofuran-5-yl)ethyl)-3,8-diazabicyclo[3.2.1]octan-3-yl)nicotinonitrile], the results for the negative logarithm of the IC50 (pIC50) in assay [1] (setting [3]) and in assay [2] (setting [4]) were 6.19 and 6.50, respectively.
With `Cc1c([C@@H](O)CN2CCN(C[C@H](O)c3ccc4c(c3)C[C@@H](C)OC4=O)CC2)ccc2c1COC2=O` (single isomer, unassigned) [Example 38A], the pIC50 is 7.16 in assay [1] (setting [3]) and 7.76 in assay [2] (setting [4]).
For the compound `Cc1c([C@@H](O)CN2CC3COCC(C2)N3CC(O)c2ccc(C#N)cn2)ccc2c1COC2=O` (stereo partly drawn) [Example 20, 6-(1-Hydroxy-2-(7-((R)-2-hydroxy-2-(4-methyl-1-oxo-1,3-dihydroisobenzofuran-5-yl)ethyl)-3-oxa-7,9 diazabicyclo[3.3.1]nonan-9-yl)ethyl)nicotinonitrile], the pIC50 in assay [1] (setting [3]) was 7.11; in assay [2] (setting [4]), 7.53.
As to `Cc1c([C@@H](O)CN2C3COCC2CN(CCc2ccc4c(c2)C[C@@H](C)OC4=O)C3)ccc2c1COC2=O` [Example 21, (R)-6-(2-(9-((R)-2-Hydroxy-2-(4-methyl-1-oxo-1,3-dihydroisobenzofuran-5-yl)ethyl)-3-oxa-7,9-diazabicyclo[3.3.1]nonan-7-yl)ethyl)-3-methylisochroman-1-one], the figures for the pIC50 in assay [1] (Thallium Flux Assay IC50) and in assay [2] (read-out: EP Assay IC50) were 7.44 and 7.35, respectively.

Broadly, the pIC50 is the negative decadic logarithm of the IC50, by convention in mol/L.

The values are drawn from patent US9139585B2 (Merck Sharp & Dohme Corp., priority 2011, dated 2015).
